# Like-named read-outs stand apart in the source and are kept apart here.
# Assays:
# [1] = cc_pd bond, 12-membered ring
# [2] = system: TPM3-NTRK1-wt IC50 / primary target (e.g. CD74-ROS1-wt) IC50, Ba/F3 cells; experiment: Cell assay TRKA selectivity (TRKA potency divided by primary target potency); format: cell-based
# In short: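 Ratio of TRKA to primary-target cellular IC50 (e.g. TPM3-NTRK1-wt/CD74-ROS1-wt), grouped into bins A >30, B >10, C ≥1, D <1. Each IC50 came from engineered Ba/F3 fusion lines grown without IL-3, dosed for 72 h and read as CellTiter-Glo luminescence, with a four-parameter logistic fit.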
# [3] = system: ROS1-positive NSCLC; conditions: treatment of ROS1-positive NSCLC; cited from earlier work
structure (smiles),measurement,setting,value
"CCc1nn(C)c2c1-c1cnc(N)c(c1)OCc1cc(F)ccc1-c1ncccc1C2 [Example 170, 3-ethyl-17-fluoro-5-methyl-21-oxa-4,5,12,24-tetraazapentacyclo[20.3.1.0^2,^6.0^8,^13.0^14,^19]hexacosa-1(25),2(6),3,8(13),9,11,14,16,18,22(26),23-undecaen-23-amine]","ring closure, yield after HPLC","[1]; from CCc1nn(C)c(Cc2cccnc2-c2ccc(F)cc2COc2cc(Br)cnc2N)c1Br, B2pin2/Pd(OAc)2/cataCXium A/CsF, MeOH/H2O, 17.0 mM, 80.0 °C, 5.0 h",3.3%
same,TPM3-NTRK1-wt/CD74-ROS1-G2032R,"[2]; TRKA selectivity ratio: TPM3-NTRK1-wt IC50 / CD74-ROS1-G2032R IC50, Ba/F3 cells","A (bin A for very high selectivity, ratio>30-fold)"
same,TPM3-NTRK1-wt/CD74-ROS1-wt,"[2]; TRKA selectivity ratio: TPM3-NTRK1-wt IC50 / CD74-ROS1-wt IC50, Ba/F3 cells","A (bin A for very high selectivity, ratio>30-fold)"
same,TPM3-NTRK1-wt/EML4-ALK-L1196M-G1202R,"[2]; TRKA selectivity ratio: TPM3-NTRK1-wt IC50 / EML4-ALK-L1196M-G1202R IC50, Ba/F3 cells","B (bin B for high selectivity, ratio>10-fold)"
same,TPM3-NTRK1-wt/EML4-ALK-wt,"[2]; TRKA selectivity ratio: TPM3-NTRK1-wt IC50 / EML4-ALK-wt IC50, Ba/F3 cells","A (bin A for very high selectivity, ratio>30-fold)"
"C[C@@H](Oc1cc(-c2cnn(C3CCNCC3)c2)cnc1N)c1c(Cl)ccc(F)c1Cl [Crizotinib, crizotinib]",median progression-free survival,[3],9-19 months
same,overall response rate,[3],60-80%
CCn1ncc2c1-c1cnc(N)c(c1)O[C@H](C)c1cc(F)ccc1-c1nn(C)cc1C2,"ring closure, yield after HPLC","[1]; from CCn1ncc(Cc2cn(C)nc2-c2ccc(F)cc2[C@@H](C)Oc2cc(Br)cnc2N)c1Br, B2pin2/Pd(OAc)2/cataCXium A/NaOH, MeOH/H2O, 41.0 mM, 80.0 °C, 12.0 h",10%
CC(Oc1cc(Br)cnc1N)c1cc(F)ccc1-c1c(Cn2cnc(C#N)c2)cnn1C (stereo not drawn),"ring closure, yield after HPLC","[1]; the molecule shown is the open-chain precursor, Pd(OAc)2/cataCXium A/KOAc, 2-methyl-2-butanol, 30.0 mM, 120.0 °C",5.9%
